According to US8178506B2, “Oligomeric compounds and compositions for use in modulation of small non-coding RNAs” (Regulus Therapeutics Inc., priority 2003, dated 2012):
In the oligonucleotide strings, read from the 5' end, every base follows the letter of its sugar. An asterisk marks phosphorothioate; unmarked linkages are phosphodiester. Other units and linkages are bracketed, terminal groups are in braces. A string of capitals states the bases alone. e = 2'-O-(2-methoxyethyl) (MOE); [5mC] = 5-methylcytosine

Experiments:
mir-23b miRNA = assay: pGL3-mir-23b sensor luciferase assay in HeLa cells; assay type: cell-based, human; conditions: pGL3-mir-23b sensor-expressing HeLa cells
Description: In order to assess the ability of miRNAs to bind predicted miRNA binding sites and regulate the expression of the luciferase reporter, in some embodiments, expression systems based on the pGL3-Control (Promega Corp., Madison Wis.) reporter vector and comprising either a mir-15a, mir-21, or a mir-23b miRNA binding site were developed and used in transient transfections of HeLa cells to determine whether the endogenous mir-15a, mir-21, or mir-23b miRNAs, respectively, could repress luciferase reporter gene expression.
The pGL3-mir-23b sensor plasmid was created by cloning the sequence ([…]; SEQ ID NO: 307), representing a sequence complementary to the mir-23b miRNA, into the Xba site of the pGL3-Control plasmid, placing the potential miRNA-binding site in the 3′UTR of the luciferase reporter. This reporter plasmid was used to transfect HeLa cells and it was observed that the endogenous mir-23b miRNA was able to inhibit luciferase expression from the pGL3-mir-23b sensor plasmid. Thus, to further evaluate the ability of the mir-23b miRNA to bind this target site encoded by the pGL3-mir-23b sensor plasmid, and to assess the ability of oligomeric compounds to interfere with mir-23b-mediated silencing, pGL3-mir-23b sensor-expressing HeLa cells were treated with varying concentrations (1.3-, 5- or 20 nM) of the following oligomeric compounds: ISIS Number 327889 (SEQ ID NO: 307), a phosphorothioate uniform 2′-MOE oligomeric compound, and ISIS Number 340925 (SEQ ID NO: 307), a 2′-MOE 5-10-8 gapmer oligomeric compound, both targeting mir-23b. The uniform 2′-MOE phosphorothioate oligomeric compound ISIS Number 327924 (SEQ ID NO: 342) targeting an unrelated miRNA (mir-129-2) was used as a negative control. The data are the average of three trials, and are presented in Table 43 as relative luciferase activity (normalized to pRL-CMV luciferase plasmid only, not treated with oligomeric compound).

PPP2CB protein = assay: Immunoblot of PPP2CB protein in differentiating adipocytes; assay type: cell-based, human; conditions: differentiating adipocytes 7- and 10-days post-differentiation, 250 nM
Method: When miRNAs have effects on the expression of downstream genes or proteins encoded by these genes, it is advantageous to measure the protein levels of those gene products, and to do this, western blot (immunoblot) analysis is employed. Immunoblot analysis is carried out using standard methods. Briefly, preadipocytes and differentiating adipocytes were cultured as described previously, and differentiating adipocytes are sampled at several timepoints after stimulation of differentiation. Cells were treated with 250 nM oligomeric compounds and harvested 16-20 h after oligomeric compound treatment. Cells were washed, lysed in RIPA buffer with protease inhibitor cocktail (Roche Diagnostics Corporation, Indianapolis, Ind.), suspended in Laemmli buffer (20 ul/well), boiled for 5 minutes and loaded onto either an 8% SDS-PAGE or a 4-20% gradient SDS-PAGE gel. Gels are run for approximately 1.5 hours at 150 V, and transferred to PVDF membrane for western blotting. […] Bands are visualized and quantitated using a PHOSPHORIMAGER™ (Molecular Dynamics, Sunnyvale Calif.) or the ChemiDoc™ system (Bio-Rad Laboratories, Inc., Hercules, Calif.). Thus, the effects of treatment of many cell types (including, but not limited to, preadipocytes, differentiating adipocytes, HeLa, T-24 and A549 cells) with oligomeric compounds of the present invention on the levels of gene expression products can be assessed. […]

Row | Substance | Fold change luciferase (mir-23b miRNA; 1.3 nM) | Fold change luciferase (mir-23b miRNA; 5 nM) | Fold change luciferase (mir-23b miRNA; 20 nM) | PPP2CB protein levels (PPP2CB protein)
1 | 327889 (antisense eG*eT*eG*eG*eT*eA*eA*eT*e[5mC]*e[5mC]*e[5mC]*eT*eG*eG*e[5mC]*eA*eA*eT*eG*eT*eG*eA*eT) [compound 327889] | 3.75 | 3.46 | 7.40 | 
2 | TGAGCTACAGTGCTTCATCTCA [ISIS 327901] (chemistry not given here) [uniform 2′-MOE PS; targets mir-143] |  |  |  | higher
